Test results reported in patent US20250115596A1, “ESTERS OF 8-METHYL-8-AZABICYCLO[3.2.1] OCTAN-3-YL 3-HYDROXY-2-PHENYLPROPANOATE” (ADS Therapeutics LLC, priority 2022, published 2025).
In brackets after ≈: the same amount, converted by molar mass. Structures can show the parent of a compound that is named as a salt.

Legend:
Dutch Belted rabbits = assay: In vivo pharmacology study: pupil size after topical ocular instillation of eye drop formulation; conditions: for pupil size change from baseline: female Dutch Belted rabbits; for retention of pupil dilation during the measurement period: measured up to 24 hour after dosing
Procedure: The test compound was administered to each animal by topical ocular instillation of 40 μL of eye drop formulation just once at day 1. The pupil size of both eyes of all animals were measured at baseline (30 minutes before dosing), 0.5 hour, 1 hour, 2 hour, 4 hour, 6 hour, 8 hour, 12 hour, and 24 hour after dosing. Pupil sizes were measured in both eyes of all animals on 3 separate days during acclimation prior to dosing initiation. Set the light intensity in the procedure room so that the animal's pupil size was about 6-7 mm. Light intensity of the procedure room for pupil size measurement should be maintained constant throughout the pupil size measurement procedures in the study. Pupil size change from baseline was calculated for each eye of each individual animal separately for each postdose timepoint. Mean and standard error of pupil size change from baseline were calculated for each group per postdose timepoint and plotted mean of pupil change from baseline against timepoint comparisons.

physchem = conditions: organic solvent or mixture, thermodynamic from solid
[1] = 0.4% formulation in F6H8, single 40 μL eye drop

## CCCCCCCC/C=C\CCCCCCCC(=O)OCC(C(=O)O[C@H]1C[C@H]2CC[C@@H](C1)N2C)c1ccccc1 (stereo partly drawn) [Compound 1, 3-(((1R,3r,5S)-8-methyl-8-azabicyclo[3.2.1]octan-3-yl)oxy)-3-oxo-2-phenylpropyl (9Z)-octadec-9-enoate]
Dutch Belted rabbits; [1]
  pupil size change from baseline: comparable pupil size dilation as the 0.01% atropine sulfate monohydrate
  retention of pupil dilation during the measurement period: retained the pupil dilation throughout the measurement period
physchem
  solubility at 30 min: 5000 µg/mL (≈ 9.03 mM)

## CCCCC/C=C\C/C=C\CCCCCCCC(=O)OCC(C(=O)O[C@H]1C[C@H]2CC[C@@H](C1)N2C)c1ccccc1 (stereo partly drawn) [Compound 2, 3-(((1R,3r,5S)-8-methyl-8-azabicyclo[3.2.1]octan-3-yl)oxy)-3-oxo-2-phenylpropyl (9Z,12Z)-octadeca-9,12-dienoate]
Dutch Belted rabbits; [1]
  pupil size change from baseline: over 10%
  retention of pupil dilation during the measurement period: remained significantly dilated from baseline during the measurement period
physchem
  solubility at 30 min: 3870 µg/mL (≈ 7.01 mM)

## CCCCCCCCCCCCCCCC(=O)OCC(C(=O)O[C@H]1C[C@H]2CC[C@@H](C1)N2C)c1ccccc1 (some centres unmarked) [Compound 7, atropine palmitate]
physchem
  solubility at 30 min: 5610 µg/mL (≈ 10.6 mM)

## CCCCCC=CCCC(=O)OCC(C(=O)O[C@H]1C[C@H]2CC[C@@H](C1)N2C)c1ccccc1 (some centres unmarked) [Compound 13, atropine dec-4-enoate]
physchem
  solubility at 30 min: 4900 µg/mL (≈ 11.1 mM)

## CN1[C@@H]2CC[C@H]1C[C@@H](OC(=O)C(CO)c1ccccc1)C2 (some centres unmarked) [atropine sulfate monohydrate, reference compound]
Dutch Belted rabbits; 0.01% in normal saline, single 40 μL eye drop, 1 hour or 2 hour post-dose
  pupil size change from baseline: about 5%

## CC(C)CCC[C@@H](C)[C@H]1CC[C@H]2[C@@H]3CC=C4C[C@@H](O)CC[C@]4(C)[C@H]3CC[C@]12C [cholesterol, reference compound]
physchem; perfluorohexyloctane (F6H8)
  solubility at 30 min: 79.7 µg/mL (≈ 0.206 mM)

## CCCCCCCCCCCCCCCCCC(=O)O[C@H]1CC[C@@]2(C)C(=CC[C@H]3[C@@H]4CC[C@H]([C@H](C)CCCC(C)C)[C@@]4(C)CC[C@@H]32)C1 [cholesteryl stearate, reference compound]
physchem
  solubility at 30 min: 26.2 µg/mL (≈ 0.0402 mM)
